Entries after “also recorded” stand apart in the source; their conditions may differ.
Experiments:
[1] = molecular target: T1, human 5-HT2B receptor (Homo sapiens, UniProt P41595); assay: Aequorin assay, agonist activity at the 5-HT2B receptor; assay type: cell-based
T1 construct: host or cells: CHO-K1
Procedure: Percentage activation values were determined for 2-CF3 dihydroergotamine at the 5-HT2B receptor.

[2] = molecular target: T1, human 5-HT2B receptor; assay: Aequorin assay, competitive antagonist activity at the 5-HT2B receptor; assay type: cell-based
Procedure: Percentage inhibition values were determined for 2-CF3 dihydroergotamine on the 5-HT2B receptor.

[3] = system: human saphenous veins; assay: Constriction assay, human saphenous veins; details: CCRC 100 pM to 10 μM, 6 donors
Procedure: (§1) Human coronary arteries and saphenous veins were set up under isometric conditions on either small vessel wire myographs or organ baths, depending on vessel size, in order to examine the influence of the test article on the relative changes in tension. In order to assess tissue viability, the vessel segments were constricted with a high potassium solution (KPSS, 62.5 mM) three times. Vessels were then pre-constricted with sumatriptan (1 μM) and endothelium-dependent vasorelaxation investigated using bradykinin (10 μM). […] All vessels were fully relaxed at the end of the experiment using forskolin (10 μM).
(§2) Coronary arteries and small saphenous veins, having been cut into ring segments of approximately 2 mm length, were attached by 40 μm diameter wire running through the lumen of the vessel to stainless steel heads in 5 mL myograph baths containing PSS (physiological saline solution), aerated with 95% 02 and 5% CO2 and maintained at a temperature of 37° C. Changes in tension were recorded using a Danish Myotech isometric transducer. The vessel segments were allowed to equilibrate for at least 30 minutes after set up. Segments were processed through a standardization procedure of tension application, which reduces signal variability and allows for optimal tissue response to be obtained prior the pharmacological intervention. […]

[4] = system: human coronary arteries; assay: Constriction assay, human coronary arteries; details: CCRC 100 pM to 10 μM in half-log steps, n=6
Procedure: as §1, §2

[5] = system: Salmonella typhimurium; assay: Genotoxicity study, reversion of histidine-requiring Salmonella typhimurium strains; assay type: cell-based; details: five histidine-requiring strains, absence and presence of a rat liver metabolizing system; Dunnett's test, 1% level
Procedure: Genotoxicity studies were performed to evaluate the potential mutagenic activity of 2-CF3-DHE. Studies were performed to examine the ability of 2-CF3-DHE to revert five histidine-requiring strains of Salmonella typhimurium in the absence and presence of a rat liver metabolizing system. […] This is consistent with the conclusion that there was no evidence of any mutagenic activity observed with 2-CF3-DHE.

[6] = Metabolism in human liver microsomes; details: 1 μM, 37° C., 0-60 min; for metabolism by human liver microsomes in the presence of NADPH: 0.2 mg protein/mL
Procedure: Metabolism of dihydroergotamine (DHE) and 2-CF3 DHE was evaluated in human liver microsomes. DHE mesylate and 2-CF3 DHE mesylate (1 μM each) were incubated separately with human liver microsomes (0.2 mg protein/mL) in triplicate at 37° C. in 0.2 mL (final volume) incubation buffer (50 mM potassium phosphate buffer, pH 7.4, 3 mM MgCl2 and 1 mM EDTA, pH 7.4) with or without cofactor, NADPH-generating system. The NADPH-generating system consisted of 1 mM NADPH, pH 7.4, 5 mM glucose-6-phosphate, pH 7.4 and 1 unit/mL glucose-6-phosphate dehydrogenase. DHE was added to the incubation mixtures in water. 2-CF3-DHE was added to incubation mixtures in 50:50 (v:v) acetonitrile:water. A low level of acetonitrile in the incubation was maintained to avoid any solvent effects on enzyme activity (typically at 0.5% or lower). Reactions were initiated by the addition of the NADPH-generating system and were terminated at 0, 15, 30 and 60 minutes after initiation by the addition of 175 μL of stop reagent (acetonitrile) containing two internal standards (4′-hydroxydiclofenac-d4 and 1′-hydroxymidazolam-d4, 200 and 50 ng/mL in the final stopped incubation, respectively). The samples were then centrifuged and the supernatant fractions were analyzed by LC/MS/MS to quantify the formation of 8′-OH-DHE (metabolite) in the DHE samples and DHE and 8′-OH-DHE in the 2-CF3-DHE samples.

T1 sequence (P41595 whole entry): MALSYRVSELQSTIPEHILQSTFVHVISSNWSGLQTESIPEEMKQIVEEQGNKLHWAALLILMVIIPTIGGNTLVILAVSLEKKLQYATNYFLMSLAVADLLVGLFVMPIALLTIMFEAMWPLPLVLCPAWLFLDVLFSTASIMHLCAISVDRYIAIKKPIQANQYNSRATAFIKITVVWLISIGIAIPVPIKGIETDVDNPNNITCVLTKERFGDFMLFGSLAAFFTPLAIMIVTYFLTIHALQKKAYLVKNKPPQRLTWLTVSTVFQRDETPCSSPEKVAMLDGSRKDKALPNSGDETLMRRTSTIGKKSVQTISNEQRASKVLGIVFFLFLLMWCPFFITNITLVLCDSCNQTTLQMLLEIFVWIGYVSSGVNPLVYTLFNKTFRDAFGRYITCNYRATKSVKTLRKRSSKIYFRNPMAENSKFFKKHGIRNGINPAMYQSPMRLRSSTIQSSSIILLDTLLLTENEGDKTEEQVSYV

## CN1C[C@H](C(=O)N[C@]2(C)O[C@@]3(O)C4CCCN4C(=O)[C@H](Cc4ccccc4)N3C2=O)CC2c3cccc4[nH]c(C(F)(F)F)c(c34)CC21 (stereo partly drawn) [2-CF3-dihydroergotamine]
[1]; 0.01 nM to 20,000 nM, compared with Emax of α-methyl-5-HT
  agonist activity at the 5-HT2B receptor: no agonist activity; also recorded: little agonist activity
[2]; FIG. 2
  antagonism of the 5-HT2B receptor: potent antagonism

## CN1C[C@H](C(=O)N[C@]2(C)O[C@@]3(O)[C@@H]4CCCN4C(=O)[C@H](Cc4ccccc4)N3C2=O)CC2c3cccc4[nH]c(C(F)(F)F)c(c34)CC21 (stereo partly drawn) [2-CF3-dihydroergotamine]
[3]
  change in tension, saphenous veins: no change in tension
[4]; listed as 2-CF3-DHE
  change in tension, coronary arteries: only a very slight mean increase in tension; also recorded: slight mean increase in tension
[5]
  mutagenic activity, revertant numbers: no statistically significant increases in the revertant numbers
[6]; listed as 2-CF3-DHE
  metabolism by human liver microsomes in the presence of NADPH: extensively metabolized
[6]; human liver microsomes 0.2 mg protein/mL, with NADPH
  intrinsic clearance, slower than that of DHE: about 85%

## Cc1cc(NC(=O)Nc2ccc3c(ccn3C)c2)sn1 [SB204741, reference compound]
[2]; CHO-K1 cells, reference agonist at its EC50, 0.005 nM to 10,000 nM, read-out: IC50, antagonism of the 5-HT2B receptor
  IC50: 0.0288 µM

## CN1C[C@H](C(=O)N[C@]2(C)O[C@@]3(O)[C@@H]4CCCN4C(=O)[C@H](Cc4ccccc4)N3C2=O)C[C@@H]2c3cccc4[nH]cc(c34)C[C@H]21 [dihydroergotamine, reference compound]
[6]; listed as DHE
  metabolism by human liver microsomes in the presence of NADPH: extensively metabolized

## CNS(=O)(=O)Cc1ccc2[nH]cc(CCN(C)C)c2c1 [sumatriptan, reference compound]
[3]; Homo sapiens, read-out: EC50, constriction curve, saphenous veins
  EC50: 0.187 µM
[4]; Homo sapiens, read-out: EC50, constriction curve, coronary arteries
  EC50: 0.112 µM

## CC(N)Cc1c[nH]c2ccc(O)cc12 (stereo not drawn) [α-methyl-5-HT, reference compound]
[1]; CHO-K1 cells coexpressing apoaequorin and recombinant human 5-HT2B, reference agonist, read-out: EC50, agonism of the 5-HT2B receptor
  EC50: 0.00101 µM

Source: patent US9365591B2, “Fluoroergoline analogs” (MAP Pharmaceuticals, Inc., priority 2011, dated 2016)
